According to patent publication US20090081285A1, “USE OF RADICAL-CAPTURING SUBSTANCES IN A TOPICAL PREPARATION FOR ANTIPYRETIC TREATMENT” (priority 2005, published 2009):
Like-named read-outs stand apart in the source and are kept apart here.

Tests used:
[1] = standard antioxidants, RPF stated as well-known; cited from earlier work
[2] = Radical protection factor (RPF) by electron spin resonance (ESR); format: physicochemical; settings: in vitro
Source text: wherein RF=(S1−S2)/S1; RC=concentration of test substance (radicals/ml); PI=concentration of active substance preparation (mg/ml); S2=signal amplitude of a solution of antioxidant. The radical protection factor is preferably 800×10^14 radicals per mg of preparation, more preferably 30,000×10^14 radicals per mg of preparation.
The radical protection factor (RPF) indicates the activity in binding free radicals by an antioxidant or radical scavenger compared to a test substance.
As set forth above, the radical protection factor (RPF) determines the activity of a substance for binding free radicals as compared with a test substance. The test substance consists of a highly reactive, semi-stable radical which reacts with all known antioxidants. Such radicals include nitroxides such as Proxo (2,2,5,5-tetramethyl-1-dihydropyrrolinoxy nitroxide), Tempol (2,2,6,6-tetramethyl-1-piperidinoxy-4-ol nitroxide), DTBN (di-tert-butyl-nitroxide) or preferably DPPH (1,1-diphenyl-2-picryl-hydrazyl).
The RPF is measured in such a way that the signal amplitude of the test radical is measured by electron spin resonance (ESR/EPR) before and after mixing with an antioxidant/radical scavenger and calculating the RPF therefrom. For a series of standard antioxidants the RPF is well-known.
Ind. […] Starting from the known concentration of test substance (here: DPPH) or the number of its free radicals (radicals per ml), a signal amplitude S1 is measured using an ESR spectrometer. Both test radical and antioxidant are dissolved in a water/alcohol solution (e.g. 0.1 M). Thereafter, the signal amplitude S2 of the antioxidant is measured. The normalized difference between the two signal amplitudes is the reduction factor RF.
The result of the radical reduction of the test substance RC×RF is normalized relative to the quantity of product input PI (mg/ml). RC is the amount of the test substance, i.e., the known number of radicals in the test substance. The radical protection factor is calculated by means of the following equation:
RPF=N×10^14[radicals per mg],
wherein N is a positive real number and RPF for simplification may be reduced to the numerical value of N. This reduction will be used in the examples of the present invention.
The radical protection factor can be determined using an ESR spectrometer (GALENUS GmbH, Berlin, Germany) and is a magnitude for characterizing products with respect to their capability of binding free radicals. The method is an in vitro method in which no individual properties of the user would influence the antioxidants.

[3] = radical scavenger raw materials

Compound	radical protection factor (RPF) [1]	radical protection factor (RPF) [2, 3]	other results
CC1=C(/C=C/C(C)=C/C=C/C(C)=C/CO)C(C)(C)CCC1 [all-trans-retinol]	827 ×10^14 radicals/mg	–	–
CC(=O)Oc1c(C)c(C)c2c(c1C)CCC(C)(CCC[C@H](C)CCC[C@H](C)CCCC(C)C)O2 (stereo partly drawn) [α-tocopheryl acetate]	about 48 ×10^14 radicals/mg	–	–
CC(=O)OC/C=C(C)/C=C/C=C(C)/C=C/C1=C(C)CCCC1(C)C [all-trans-retinol acetate]	196 ×10^14 radicals/mg	–	–
O=C1O[C@H]([C@@H](O)CO)C([O-])=C1OP(=O)([O-])[O-].[Na+].[Na+].[Na+] [sodium ascorbyl phosphate]	–	35,000 ×10^14 radicals/mg	–
Cc1c(C)c2c(c(C)c1O)CCC(C)(CCCC(C)CCCC(C)CCCC(C)C)O2 (racemic) [DL-α-tocopherol]	41,200 ×10^14 radicals/mg	–	–
O=C(OC[C@H]1O[C@@H](OC(=O)c2cc(O)c(O)c(OC(=O)c3cc(O)c(O)c(O)c3)c2)[C@H](OC(=O)c2cc(O)c(O)c(OC(=O)c3cc(O)c(O)c(O)c3)c2)[C@@H](OC(=O)c2cc(O)c(O)c(OC(=O)c3cc(O)c(O)c(O)c3)c2)[C@@H]1OC(=O)c1cc(O)c(O)c(OC(=O)c2cc(O)c(O)c(O)c2)c1)c1cc(O)c(O)c(OC(=O)c2cc(O)c(O)c(O)c2)c1 [tannic acid]	–	310,000 ×10^14 radicals/mg	–
O=C(/C=C/c1ccc(O)c(O)c1)O[C@H](Cc1ccc(O)c(O)c1)C(=O)O [rosmarinic acid]	–	36,000-68,000 ×10^14 radicals/mg	–
cyclodextrins	–	–	radical protection factor (RPF) ([2]; printed without unit (b55-56: RPF=N×10^14 radicals per mg, reduced to N)): 0
